Assays:
Assay type in all cases: cell-based
[1] = tested on: MEIS1 gene expression; experiment: Inhibition of MEIS1 gene expression in human tumor cells (qRT-PCR), MV-4-11; conditions: MV4-11, MV-4-11 (carrying MLL-AF4), 48 hours of incubation, relative MEIS1 gene expression vs GAPDH, read-out: MV-4-11 MEISI EC50
Excerpt: (§1) Experimental Example 3: Evaluation of Inhibitory Activity of Compounds Against MEISI Gene Expression in Human Tumor Cells
(§2) The effect of test samples on MEIS1 gene expression in vitro cultured human leukemia cells MV-4-11 (carrying MLL-AF4), MOLM-13 (carrying MLL-AF9), and OCI-AML3 (carrying NPM1c) was studied.
(§3) • Human acute lymphoblastic leukemia cells MV-4-11, purchased from American Type Culture Collection, Catalog Number: CRL-9591; • Human acute myeloid leukemia cells MOLM-13, purchased from COBIOER BIOSCIENCES CO., LTD, Catalog Number: CBP60678; • Human acute myeloid leukemia cells OCI-AML3, purchased from COBIOER BIOSCIENCES CO., LTD, Catalog Number: CBP60817; • MEIS1 Primer/Probe, purchased from IDT, Catalog Number: 40831613; and • GAPDH Primer/Probe, purchased from IDT, Catalog Number: 22214836.
(§4) MV-4-11 cells were cultured in an IMDM medium containing 10% fetal bovine serum, or MOLM-13 and OCI-AML3 cells were cultured in an RPMI-1640 medium containing 20% fetal bovine serum, each supplemented with 100 U·mL^-1 penicillin and 100 µg·mL^-1 streptomycin. These cells were cultured at 37°C with 5% CO2. The suspensions of individual cell lines were prepared in their respective media and seeded into 48-well plates at a density of 100,000 cells/well. On the day of the experiment, a compound stock solution was diluted in a 6-fold gradient using DMSO. Each gradient-diluted stock solution was then further diluted 250-fold with a complete medium to prepare a series of working solutions at different concentrations. Next, 250 µL of working solution (containing the complete medium with a 2-fold serial concentration of the test compound or a positive control compound, or containing a control complete medium) was added to each well. After 48 hours of incubation, cells from the 48-well plate were collected into 1 mL centrifuge tubes, centrifuged at 1000 rpm for 5 minutes, and the complete medium was removed. Cells were washed twice with 1 mL PBS and centrifuged to remove PBS. Total RNA was extracted using the RNeasy Mini Kit (250) (QIAGEN, 74106). The threshold cycle (Ct) value for gene expression was determined using the HiScript II U+ One Step qRT-PCR Probe Kit (Vazyme) (Vazyme, Q223-01), with 3 replicates per sample. The prepared reaction mixture was placed in an ABI 7500 real-time PCR instrument, and the reaction proceeded following the procedures below. [formula]
(§5) Next, for the relative MEIS1 gene expression, the concentration (EC50) that inhibits 50% of relative MEIS1 gene expression was calculated using GraphPad Prism 8 software.

[2] = tested on: MV-4-11 (carrying MLL-AF4); experiment: Inhibition of proliferation of human tumor cells (Alamar Blue, 7 days), MV-4-11; conditions: Homo sapiens, MV4-11, 168 h, MV-4-11 cells (carrying MLL-AF4), method calls the value GI50
Procedure, shortened: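 MV-4-11: IMDM + 10% FBS; KG-1a: IMDM + 20% FBS; MOLM-13: RPMI-1640 + 20% FBS. 3- or 4-fold serial dilutions, duplicates, 7 d at 37°C. Readout Alamar Blue; GI50 vs Day 0 and Day 7 DMSO controls.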

[3] = tested on: MEIS1 gene expression; experiment: Inhibition of MEIS1 gene expression in human tumor cells (qRT-PCR), OCI-AML3; conditions: OCI-AML-3, OCI-AML3 (carrying NPM1c), 48 hours of incubation, relative MEIS1 gene expression vs GAPDH
Excerpt: as §1, §2, §3, §4, §5

| EC50 [1] [nM] | IC50 [2] [nM] | EC50 [3] [nM] | Compound |
| --- | --- | --- | --- |
| 61 | 6.9 | 34 | CC[C@@H](C1CCN(C(C)=O)CC1)N1CC(c2cc(-c3ccc(F)cc3C(=O)N3CCOC[C@H]3C)c3c(F)nc(C)n3c2)C1 [Example 280-1, 1-{4-[(1S)-1-[3-(1-fluoro-8-{4-fluoro-2-[(3R)-3-methylmorpholin-4-carbonyl]phenyl}-3-methylimidazo[1,5-a]pyridin-6-yl)azacyclobutan-1-yl]propyl]piperidin-1-yl}ethan-1-one] |
| 8.6 | 2.4 | 17 | Cc1ncc2c(-c3ccc(F)cc3C(=O)N3CCOC[C@H]3C)cc(C3CN([C@H](CCCN4CCN(C)CC4)C(C)C)C3)cn12 [Example 323-2, (3R)-4-[5-fluoro-2-(3-methyl-6-{1-[(3R)-2-methyl-6-(4-methylpiperazin-1-yl)hexan-3-yl]azacyclobutan-3-yl}imidazo[1,5-a]pyridin-8-yl)benzoyl]-3-methylmorpholine] |
| 3.8 | 4.3 |  | COCCN(C)CCC[C@H](C(C)C)N1CC(c2cc(-c3ccc(F)cc3C(=O)N3[C@H](C)COC[C@H]3C)c3cnn(C)c3c2)C1 [Example 186-2, [(4R)-4-[3-(4-{2-[(3R,5R)-3,5-dimethylmorpholin-4-carbonyl]-4-fluorophenyl}-1-methyl-1H-indazol-6-yl)azacyclobutan-1-yl]-5-methylhexyl](2-methoxyethyl)methylamine] |
|  | 2.6 | 32 | Cc1nc(F)c2c(-c3ccc(F)cc3C(=O)N3CCOC[C@H]3C)cc(C3CN([C@H](CO[C@H]4CCCN(C)C4)C(C)C)C3)cn12 [Example 321-2, (3R)-4-[5-fluoro-2-(1-fluoro-3-methyl-6-{1-[(2S)-3-methyl-1-{[(3S)-1-methylpiperidin-3-yl]oxy}butan-2-yl]azacyclobutan-3-yl}imidazo[1,5-a]pyridin-8yl)benzoyl]-3-methylmorpholine] |
|  | 1.5 | 5.8 | CCN(C(=O)c1cc(F)ccc1-c1cc(C2CN([C@@H](C)C3CCN(C(=O)CO)CC3)C2)cn2c(C)nc(F)c12)C(C)C [Example 284-2] |
| 18 | 4.7 |  | CNC(=O)N1CCC([C@H](C)N2CC(c3cc(-c4ccc(F)cc4C(=O)N4CCOC[C@H]4C)c4c(F)nc(C)n4c3)C2)CC1 [Example 264-2] |

Continued, compound first:

| Compound | EC50 [1] [nM] | IC50 [2] [nM] | EC50 [3] [nM] |
| --- | --- | --- | --- |
| CCS(=O)(=O)N[C@H]1CC[C@H](CN2CC(c3cc(-c4ccc(F)cc4C(=O)N4[C@H](C)COC[C@H]4C)c4c(F)nc(C)n4c3)C2)CC1 [Example 197, N-[(1r,4r)-4-{[3-(8-{2-[(3R,5R)-3,5-dimethylmorpholin-4-carbonyl]-4-fluorophenyl}-1-fluoro-3-methylimidazo[1,5-a]pyridin-6-yl)azacyclobutan-1-yl]methyl}cyclohexyl]ethan-1-sulfonamide] | 14 | 4 |  |
| Cc1nc(F)c2c(-c3ccc(F)cc3C(=O)N3CCOCC3C)cc(C3CN(C(CCCN4CCCC(O)C4)C(C)C)C3)cn12 (stereo not shown) [Example 292] | 15 | 2.4 |  |
| Cc1nc(F)c2c(-c3ccc(F)cc3C(=O)N3[C@H](C)COC[C@H]3C)cc(C3CN(CC4CCOCC4)C3)cn12 [Example 208] | 23 | 6.6 |  |
| Cc1nc(F)c2c(-c3ccc(F)cc3C(=O)N3CCOC[C@H]3C)cc(C3CN([C@H](CCCN4C[C@H]5C[C@@H]4CO5)C(C)C)C3)cn12 [Example 353, (1R,4R)-5-[(4R)-4-[3-(1-fluoro-8-{4-fluoro-2-[(3R)-3-methylmorpholin-4-carbonyl]phenyl}-3-methylimidazo[1,5-a]pyridin-6-yl)azacyclobutan-1-yl]-5-methylhexyl]-2-oxa-5-azabicyclo[2.2.1]heptane] | 7.4 | 4.1 | 21 |
| CC(=O)N1CCC(CN2CC(c3cc(-c4ccc(F)cc4C(=O)N4[C@H](C)COC[C@H]4C)c4c(F)nc(C)n4c3)C2)CC1 [Example 205] | 18 | 7.4 |  |
| CO[C@@H]1CCN(CCC[C@H](C(C)C)N2CC(c3cc(-c4ccc(F)cc4C(=O)N4CCOC[C@H]4C)c4c(F)nc(C)n4c3)C2)C1 [Example 202] | 3.5 | 1.8 |  |
| CO[C@@H]1CCCN(CCC[C@H](C(C)C)N2CC(c3cc(-c4ccc(F)cc4C(=O)N4CCOC[C@H]4C)c4c(F)nc(C)n4c3)C2)C1 [Example 305] | 7.6 | 3.4 |  |
| CCN(C(=O)c1cc(F)ccc1-c1cc(C2(F)CN(C(=O)C3NC4CCC3CC4)C2)cn2c(C)ncc12)C(C)C [Example 75, N-ethyl-5-fluoro-2-(6-{3-fluoro-1-[(1R,3S,4S)-2-azabicyclo[2.2.2]octan-3-carbonyl]azacyclobutan-3-yl}-3-methylimidazo[1,5-a]pyridin-8-yl)-N-(isopropyl) benzamide] | 82 | 25 |  |
| COCCN(C)CCCC(C(C)C)N1CC(c2cc(-c3ccc(F)cc3C(=O)N3CCOCC3C)c3cnn(C)c3c2)C1 (stereo not shown) [Example 185] | 55 | 26 |  |
| CCS(=O)(=O)N[C@H]1CC[C@H](CN2CC(c3cc(-c4ccc(F)cc4C(=O)N(CC(F)F)C(C)C)c4cnc(C)n4c3)C2)CC1 [Example 138] | 15 | 3 |  |
| CCN(C(=O)c1cc(F)ccc1-c1cc(C2CCN(Cc3ccc(-c4cc(OC)c(OC)nn4)cc3)C2)cn2c(C)ncc12)C(C)C (stereo not shown) [Example 83] | 24 | 5.5 |  |
| Cc1nc(F)c2c(-c3ccc(F)cc3C(=O)N3CCOC[C@H]3C)cc(C3CN([C@H](CCCN4CCN(C5CC5)CC4)C(C)C)C3)cn12 [Example 350] | 6.8 |  |  |
| CCN(C(=O)c1cc(F)ccc1-c1cc(C2CN(C[C@H]3CC[C@H](NS(=O)(=O)CC)CC3)C2)cn2c(C)nc(F)c12)C(C)C [Example 137] | 16 | 4.7 |  |
| CO[C@H]1CCCN(CCC[C@H](C(C)C)N2CC(c3cc(-c4ccc(F)cc4C(=O)N4CCOC[C@H]4C)c4c(F)nc(C)n4c3)C2)C1 [Example 306] | 4.6 | 2.8 |  |
| CCNC(=O)N1CCC(CN2CC(c3cc(-c4ccc(F)cc4C(=O)N4CCOC[C@H]4C)c4c(F)nc(C)n4c3)C2)CC1 [Example 261] | 8.5 | 9.6 |  |
| Cc1nc(F)c2c(-c3ccc(F)cc3C(=O)N3CCOC[C@H]3C)cc(C3CN(C(CC[C@@H]4COCCN4)C(C)C)C3)cn12 (stereo partly drawn) [Example 371, (3R)-4-{5-fluoro-2-[1-fluoro-3-methyl-6-(1-{4-methyl-1-[(3R)-morpholin-3-yl]pentan-3-yl}azacyclobutan-3-yl)imidazo[1,5-a]pyridin-8-yl]benzoyl}-3-methylmorpholine] | 3 |  |  |
| COCCN(C)CCCC(C(C)C)N1CC(c2cc(-c3ccc(F)cc3C(=O)N(CC(F)F)C(C)C)c3c(F)nc(C)n3c2)C1 (stereo not shown) [Example 142, N-(2,2-difluoroethyl)-5-fluoro-2-[1-fluoro-6-(1-{6-[(2-methoxyethyl)(methyl)amino]-2-methylhexan-3-yl}azacyclobutan-3-yl)-3-methylimidazo[1,5-a]pyridin-8-yl]-N-(isopropyl)benzamide] | 6 | 2.2 |  |
| CCS(=O)(=O)N[C@H]1CC[C@H](CN2CC(c3cc(-c4ccc(F)cc4C(=O)N4CCOC[C@H]4C)c4cnc(C)n4c3)C2)CC1 [Example 134, N-[(1r,4r)-4-{[3-(8-{4-fluoro-2-[(3R)-3-methylmorpholin-4-carbonyl]phenyl}-3-methylimidazo[1,5-a]pyridin-6-yl)azacyclobutan-1-yl]methyl}cyclohexyl]ethan-1-sulfonamide] | 55 | 26 |  |

From patent EP4782453A1 (Beyang Therapeutics Co., Ltd., priority 2023, dated 2025)
